# From the supplement of paper PMC10949913
# How the values were obtained:
# Assay in all cases: area under concentration-response curve (viability) (AUC (a.u.)); higher = less active
# Conditions in all cases: 48 h
# [1] = test system: CU-ACC1
# Summary of the method: (§1)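 After 48 h of treatment with 23 nL of each library compound at 11 concentrations, three adrenocortical carcinoma cell lines in 1,536-well plates (500–1,000 cells/well, 5 µL medium) were given CellTiter-Glo for 15 minutes at room temperature. Luminescence was then read and normalised per plate to vehicle and empty-well controls. AC50 and area under the curve were drawn from fitted concentration-response curves of inhibitory or non-responding classes only.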
# [2] = test system: NCI-H295R
# Summary of the method: as §1
# [3] = test system: CU-ACC2
# Summary of the method: as §1
SMILES,area under concentration-response curve [1],area under concentration-response curve [2],area under concentration-response curve [3]
CCCCCCCc1ccc(CCc2cccc(O)c2C(=O)O)cc1,515,534,574
Nc1nc(-c2nn(Cc3ccccc3F)c3ncccc23)ncc1C1CC1,538,544,533
ClC\1=C(/CN2CCCC2=N)NC(=O)NC1=O,505,486,547
O[C@@H]1C\C(=C/C(O)C1O)C(O)=O (some centres undefined),512,581,614
CCN1\C=C(C(O)=O)/C(=O)C2=C1C(=C(N3CCNC(C)C3)C(=C2)F)F (centres undefined),577,605,674
CCCN[S+](=O)([O-])Nc1ncnc(OCCOc2ncc(Br)cn2)c1-c1ccc(Br)cc1,381,518,567
Cn1nccc1Nc1nccc(-c2cc3c(s2)C(C)(C)N(CCN2CCOCC2)C3=O)n1,528,544,589
OC[C@H]1O[C@H](C[C@@H]1O)N2\C=C(F)/C(=O)NC2=O,516,497,584
CC(C(=O)O)c1ccc(-c2ccccc2)c(F)c1 (centres undefined),469,470,479
Cc1ccnc(N[S+](=O)([O-])c2ccc(NC(=O)Nc3ccc([S+](=O)([O-])Nc4nccc(C)n4)cc3)cc2)n1,499,537,566
N\C1=N\C2=C(N=C[N]2COCCO)C(=O)N1,420,584,616
C[C@@H]1[C@H](O)[C@@H](C)/C=C/C=C/C=C/C=C/C=C/C=C/C=C/[C@H](O[C@@H]2O[C@H](C)[C@@H](O)[C@H](N)[C@@H]2O)C[C@@H]2O[C@](O)(C[C@@H](O)C[C@@H](O)[C@H](O)CC[C@@H](O)C[C@@H](O)CC(=O)O[C@H]1C)C[C@H](O)[C@H]2C(=O)O,550,595,633
COc1ccc2cc(OCC3(C(=O)O)CN(C(=O)c4ccc(F)cc4)C3)ccc2c1,556,552,606
Cc1cnc(C(=O)O)c[n+]1[O-],513,526,579
O=C([O-])Cc1ccccc1Nc1c(Cl)cccc1Cl,536,585,645
COc1ccc(Cl)c(Nc2nc3ccccc3nc2N[S+](=O)([O-])c2cccc(NC(=O)C(C)(C)N)c2)c1,459,439,536
CCCN(CCC)C(=O)C(CCC(=O)O)NC(=O)c1ccccc1 (centres undefined),504,524,570
CC/1=C(/C(CC(=O)N1)C2=CC=C(C=C2)C(F)(F)F)C(=O)NC3=C(F)C=C4[NH]N=CC4=C3 (centres undefined),477,557,560
CCCCNc1ncc(-c2ccc(CN3CCOCC3)cn2)c(N[C@H]2CC[C@H](O)CC2)n1,612,623,721
COc1cc2nccc(Oc3ccc(NC(=O)NC4CC4)c(Cl)c3)c2cc1C(N)=O,516,582,623
CC(=O)NCCC(=O)N[C@@H](CCC(N)=O)C(=O)N[C@@H](CO)C(=O)N[C@@H](CCC(N)=O)C(=O)N[C@@H](CCC(N)=O)C(=O)N[C@H](C(=O)N[C@@H](Cc1ccccc1)C(=O)N[C@]1(C)CCCCCC/C=C\CCC[C@@](C)(C(=O)N[C@@H](CCC(N)=O)C(=O)N[C@@H](CC(N)=O)C(N)=O)NC(=O)[C@H](CC(C)C)NC(=O)[C@H](CC(C)C)NC(=O)[C@@H](CCCNC(=N)N)NC(=O)[C@H](Cc2c[nH]c3ccccc23)NC(=O)[C@H](CC(C)C)NC(=O)[C@H](CC(N)=O)NC1=O)[C@H](C)O,425,546,575
Oc1ccc(-c2nc(-c3ccncc3)c(-c3ccc(F)cc3)[nH]2)cc1,493,475,574

SMILES,area under concentration-response curve [1],area under concentration-response curve [2],area under concentration-response curve [3]
Cc1cnc(-c2cc(N3CCN(C(=O)CC[S+](C)(=O)[O-])CC3)ncc2Cl)c(C)c1,536,551,534
CCN(CCCOc1ccc2c(Nc3cc(CC(=O)Nc4cccc(F)c4)[nH]n3)ncnc2c1)CCOP(=O)(O)O,471,495,579
CC[C@H](C)C(=O)O[C@H]1C[C@@H](C)\C=C2\C=C/[C@H](C)[C@H](CC[C@@H]3C[C@@H](O)CC(=O)O3)[C@@H]12,576,576,647
Cc1noc(-c2ccc(-c3ccc(C4(C(=O)O)CC4)cc3)cc2)c1NC(=O)O[C@H](C)c1ccccc1,485,526,446
C[S+](=O)([O-])c1cc(F)cc2c3c(n(Cc4ccc(Cl)cc4)c12)[C@@H](CC(=O)O)CC3,536,544,613
Nc1nc(Cl)nc2c1ncn2[C@H]1C[C@H](O)[C@@H](CO)O1,558,537,601
O=C1Nc2ccc(I)cc2/C1=C/c1cc(Br)c(O)c(Br)c1,500,506,585
C[C@H](CCC(=O)O)[C@H]1CC[C@H]2[C@@H]3[C@@H](O)C[C@@H]4C[C@H](O)CC[C@]4(C)[C@H]3CC[C@]12C,519,538,496
O=C(c1ccc(N[S+](=O)([O-])c2cccc3cccnc23)cc1)N1CCN(CC2CC2)CC1,485,527,486
CC(C)C[C@H](NC(=O)[C@H](Cc1ccccc1)NC(=O)OCc1ccccc1)C(=O)C=O,456,504,531
NC[C@H]1O[C@H](O[C@H]2[C@H](O)[C@@H](O[C@H]3O[C@H](CO)[C@@H](O)[C@H](N)[C@H]3O)[C@H](N)C[C@@H]2N)[C@H](N)C[C@@H]1O,486,535,579
C=CC[N+]1([C@H]2C[C@H]3[C@@H]4CC[C@H]5C[C@H](O)[C@@H](N6CCOCC6)C[C@]5(C)[C@H]4CC[C@]3(C)[C@H]2OC(C)=O)CCCC1,597,610,639
COC1=CC=C(C=C1O)C/2=C/C(=O)C3=C(O2)C=C(O[C@@H]4O[C@H](CO[C@@H]5O[C@@H](C)[C@H](O)[C@@H](O)[C@H]5O)[C@@H](O)[C@H](O)[C@H]4O)C=C3O,502,554,582
CCOC(=O)C/1=C(C)/NC(=S)NC1C2=CC=CC(=C2)O (centres undefined),498,526,545
CN1C(=O)C(Cc2c[nH]c3ccccc23)NC1=S (centres undefined),543,568,639
N[C@@H](CCC(=O)O)C(=O)N[C@@H](Cc1c[nH]c2ccccc12)C(=O)O,493,519,584
COc1nccc(-c2c(-c3ccc(F)cc3)ncn2C2CCC(O)CC2)n1 (centres undefined),523,550,590
CC(C)(CO)n1cc(C(=O)c2cncc(NC(=O)Cc3ccc(Cl)cn3)c2)c2cnc(N)nc21,532,496,576
COc1cc(OC)c(C(=O)CCCN2CCCC2)c(OC)c1,440,465,500
COc1ccc2[nH]c(C(=O)N3CCC(CC(C)(C)O)CC3)cc2c1,484,572,609
CC1CNc2c(cccc2[S+](=O)([O-])N[C@@H](CCCNC(=N)N)C(=O)N2CC[C@@H](C)C[C@@H]2C(=O)O)C1 (some centres undefined),502,507,547
